Test results as given in patent US20230406885A1, “CYCLIC PEPTIDES FOR TRAPPING INTERLEUKIN-1 BETA” (MERCK SHARP & DOHME LLC, priority 2022, published 2023).
*1 amine or outer side, *2 acyl side, *3 side chain or, on linkers, in order; H or OH if unused. Where a SMILES comes first, the peptide text is derived from it. [ ]: non-standard residue; d: D form. Trp(4-Cl)(βS-Me) = C[C@@H](c1c[nH]c2cccc(Cl)c12)[C@H](N)C(=O)O; Ala(piperidin-4-yl) = O=C([C@H](CC1CCN([*:3])CC1)N[*:1])[*:2]; Trp(βS-Me,4-F) = C[C@@H](c1c[nH]c2cccc(F)c12)[C@H](N)C(=O)O; Bip(4'-COOH) = N[C@@H](Cc1ccc(-c2ccc(C(=O)O)cc2)cc1)C(=O)O; X6 = O=C(O)C12CC(c3ccc(C[C@H](N[*:1])C(=O)[*:2])cc3)(C1)C2; X2 = O=C(O)c1ccc(-c2ccc(C[C@H](N[*:1])C(=O)[*:2])cn2)cc1; 1Nal(3S-Me) = C[C@@H](c1cccc2ccccc12)[C@H](N)C(=O)O; Ala(indazol-1-yl) = N[C@@H](Cn1ncc2ccccc21)C(=O)O; Phe(3-allyloxy) = C=CCOc1cccc(C[C@H](N)C(=O)O)c1; Phe(4-COOH) = N[C@@H](Cc1ccc(C(=O)O)cc1)C(=O)O; Trp(7-aza) = N[C@@H](Cc1c[nH]c2ncccc12)C(=O)O; Pro(4R-NH2) = N[C@H]1CN[C@H](C(=O)O)C1; 1Nal = N[C@@H](Cc1cccc2ccccc12)C(=O)O; AEF = NCCOc1ccc(C[C@H](N)C(=O)O)cc1; hTyr = N[C@@H](CCc1ccc(O)cc1)C(=O)O; h4Pal = N[C@@H](CCc1ccncc1)C(=O)O; hCha = N[C@@H](CCC1CCCCC1)C(=O)O; dDab = NCC[C@@H](N)C(=O)O; Orn = NCCC[C@H](N)C(=O)O; dNMeA = CN[C@H](C)C(=O)O; Nva = CCC[C@H](N)C(=O)O; Dap = NC[C@H](N)C(=O)O; Aib = CC(C)(N)C(=O)O

What follows are molecules tested against T1, Recombinant human IL-1β (Homo sapiens, UniProt P01584) (assay: IL-6 assay in MRC5 cells: inhibition of IL-1β induced IL-6 secretion (AlphaLISA)). Conditions: inhibition of IL-1β induced IL-6 secretion in MRC5 cells; IL-1β pre-incubated 1 hour with compound; read-out: MRC5 IC50.
T1 construct: purchased BioLegend 579404
Format: cell-based
Procedure, shortened: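 IL-1β at 2×EC80 in seeding medium (EMEM, 0.025% BSA) preincubated 1 h at ambient temperature with compound, then 3000 MRC5 cells/well added and incubated overnight at 37 °C, 5% CO2. IL-6 in conditioned medium quantified by AlphaLISA; IC50 from 4-parameter logistic fit.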

T1 sequence (P01584 117-269): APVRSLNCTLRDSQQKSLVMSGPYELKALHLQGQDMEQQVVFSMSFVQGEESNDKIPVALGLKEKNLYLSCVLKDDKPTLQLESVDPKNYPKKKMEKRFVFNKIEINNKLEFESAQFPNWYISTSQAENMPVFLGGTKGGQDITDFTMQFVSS

IC50 | Structure (SMILES)
0.494 nM | CCC[C@@H]1NC(=O)[C@H](Cc2cccc3ccccc23)NC(=O)[C@H](Cc2ccc(-c3ccc(C(=O)O)cc3)cc2)NC(=O)CNC(=O)[C@@H](C)N(C)C(=O)[C@H](CC(=O)O)NC(=O)[C@H]([C@@H](C)c2cccc3ccccc23)NC(=O)[C@@H]2C[C@@H](N)CN2C(=O)CNC(=O)[C@H](Cc2ccc(C(=O)O)cc2)NC(=O)[C@H](Cc2c[nH]c3ccccc23)NC(=O)[C@H](Cc2ccc(OCCNC(C)=O)cc2)NC(=O)[C@H](C)NC(=O)[C@@H](C)NC1=O [Example 98] (cyclo([AEF](Ac)W[Phe(4-COOH)]G[Pro(4R-NH2)][1Nal(3S-Me)]D[dNMeA]G[Bip(4'-COOH)][1Nal][Nva][dA]A))
0.44 nM | C[C@@H]1C(=O)NCC(=O)N[C@@H](Cc2ccc(-c3ccc(C(=O)O)cc3)cc2)C(=O)N[C@@H](Cc2cccc3ccccc23)C(=O)N[C@@H](CCCN)C(=O)NC(C)(C)C(=O)NCC(=O)N[C@@H](Cc2ccc(-c3ccc(C(=O)O)cc3)cc2)C(=O)N[C@@H](Cc2c[nH]c3ccccc23)C(=O)N[C@@H](Cc2ccc(C(=O)O)cc2)C(=O)NCC(=O)N2C[C@H](N)C[C@H]2C(=O)N[C@@H]([C@@H](C)c2cccc3ccccc23)C(=O)N[C@@H](CC(=O)O)C(=O)N1C [Example 20] (cyclo([Bip(4'-COOH)]W[Phe(4-COOH)]G[Pro(4R-NH2)][1Nal(3S-Me)]D[dNMeA]G[Bip(4'-COOH)][1Nal][Orn][Aib]G))
0.312 nM | CC(C)C[C@@H]1NC(=O)[C@H](CCc2ccncc2)NC(=O)[C@H](Cc2ccc(-c3ccc(C(=O)O)cc3)cc2)NC(=O)CNC(=O)[C@@H](C)N(C)C(=O)[C@H](CC(=O)O)NC(=O)[C@H]([C@@H](C)c2c[nH]c3cccc(F)c23)NC(=O)[C@@H]2C[C@@H](N)CN2C(=O)CNC(=O)[C@H](Cc2ccc(C(=O)O)cc2)NC(=O)[C@H](Cc2c[nH]c3ccccc23)NC(=O)[C@H](Cc2ccc(-c3ccc(C(=O)O)cc3)cc2)NC(=O)[C@H](CCc2ccc(O)cc2)NC(=O)[C@@H](C)NC1=O [Example 61] (cyclo([Bip(4'-COOH)]W[Phe(4-COOH)]G[Pro(4R-NH2)][Trp(βS-Me,4-F)]D[dNMeA]G[Bip(4'-COOH)][h4Pal]L[dA][hTyr]))
0.122 nM | C=CCOc1cccc(C[C@@H]2NC(=O)[C@H](Cc3ccc(-c4ccc(C(=O)O)cc4)cc3)NC(=O)CNC(=O)[C@@H](C)N(C)C(=O)[C@H](CC(=O)O)NC(=O)[C@H]([C@@H](C)c3c[nH]c4cccc(F)c34)NC(=O)[C@@H]3C[C@@H](N)CN3C(=O)CNC(=O)[C@H](Cc3ccc(C(=O)O)cc3)NC(=O)[C@H](Cc3c[nH]c4ccccc34)NC(=O)[C@H](Cc3ccc(-c4ccc(C(=O)O)cc4)cc3)NC(=O)[C@H](CCc3ccc(O)cc3)NC(=O)[C@@H](C)NC(=O)[C@H](CC(C)C)NC2=O)c1 [Example 76] (cyclo([Bip(4'-COOH)]W[Phe(4-COOH)]G[Pro(4R-NH2)][Trp(βS-Me,4-F)]D[dNMeA]G[Bip(4'-COOH)][Phe(3-allyloxy)]L[dA][hTyr]))
0.508 nM | C[C@@H]1C(=O)NCC(=O)N[C@@H](Cc2ccc(-c3ccc(C(=O)O)cc3)cc2)C(=O)N[C@@H](CC2CCNCC2)C(=O)N[C@@H](CO)C(=O)N[C@H](C)C(=O)N[C@@H](CCc2ccc(O)cc2)C(=O)N[C@@H](Cc2ccc(-c3ccc(C(=O)O)cc3)cc2)C(=O)N[C@@H](Cc2c[nH]c3ccccc23)C(=O)N[C@@H](Cc2ccc(C(=O)O)cc2)C(=O)NCC(=O)N2C[C@H](N)C[C@H]2C(=O)N[C@@H]([C@@H](C)c2c[nH]c3cccc(Cl)c23)C(=O)N[C@@H](CC(=O)O)C(=O)N1C [Example 40] (cyclo([Bip(4'-COOH)]W[Phe(4-COOH)]G[Pro(4R-NH2)][Trp(4-Cl)(βS-Me)]D[dNMeA]G[Bip(4'-COOH)][Ala(piperidin-4-yl)]S[dA][hTyr]))
0.107 nM | C[C@@H]1C(=O)NCC(=O)N[C@@H](Cc2ccc(-c3ccc(C(=O)O)cc3)cc2)C(=O)N[C@@H](CCCCN)C(=O)N[C@@H](CO)C(=O)N[C@H](C)C(=O)N[C@@H](CCc2ccc(O)cc2)C(=O)N[C@@H](Cc2ccc(-c3ccc(C(=O)O)cc3)cc2)C(=O)N[C@@H](Cc2c[nH]c3ccccc23)C(=O)N[C@@H](Cc2ccc(C(=O)O)cc2)C(=O)NCC(=O)N2C[C@H](N)C[C@H]2C(=O)N[C@@H]([C@@H](C)c2c[nH]c3cccc(F)c23)C(=O)N[C@@H](CC(=O)O)C(=O)N1C [Example 72] (cyclo([Bip(4'-COOH)]W[Phe(4-COOH)]G[Pro(4R-NH2)][Trp(βS-Me,4-F)]D[dNMeA]G[Bip(4'-COOH)]KS[dA][hTyr]))
0.256 nM | C[C@@H]1C(=O)NCC(=O)N[C@@H](Cc2ccc(-c3ccc(C(=O)O)cc3)nc2)C(=O)N[C@@H](Cc2c[nH]c3ccccc23)C(=O)N[C@@H](CN)C(=O)N[C@H](C)C(=O)N[C@@H](CCc2ccc(O)cc2)C(=O)N[C@@H](Cc2ccc(-c3ccc(C(=O)O)cc3)nc2)C(=O)N[C@@H](Cc2c[nH]c3ccccc23)C(=O)N[C@@H](Cc2ccc(C(=O)O)cc2)C(=O)NCC(=O)N2C[C@H](N)C[C@H]2C(=O)N[C@@H]([C@@H](C)c2cccc3ccccc23)C(=O)N[C@@H](CC(=O)O)C(=O)N1C [Example 10] (cyclo([X2]W[Phe(4-COOH)]G[Pro(4R-NH2)][1Nal(3S-Me)]D[dNMeA]G[X2]W[Dap][dA][hTyr]))

Same assay, conditions: inhibition of IL-1β induced IL-6 secretion in MRC5 cells; read-out: MRC5 IC50

IC50 | Structure (SMILES)
0.016 nM | C[C@@H]1C(=O)NCC(=O)N[C@@H](Cc2ccc(-c3ccc(C(=O)O)cc3)cc2)C(=O)N[C@@H](Cn2ncc3ccccc32)C(=O)NCC(=O)N[C@H](CCN)C(=O)N[C@@H](CCC2CCCCC2)C(=O)N[C@@H](Cc2ccc(C34CC(C(=O)O)(C3)C4)cc2)C(=O)N[C@@H](Cc2c[nH]c3ccccc23)C(=O)N[C@@H](Cc2ccc(C(=O)O)cc2)C(=O)NCC(=O)N2C[C@H](N)C[C@H]2C(=O)N[C@@H]([C@@H](C)c2cccc3ccccc23)C(=O)N[C@@H](CC(=O)O)C(=O)N1C [Example 188] (cyclo([X6]W[Phe(4-COOH)]G[Pro(4R-NH2)][1Nal(3S-Me)]D[dNMeA]G[Bip(4'-COOH)][Ala(indazol-1-yl)]G[dDab][hCha]))
0.064 nM | CC(=O)NCCOc1ccc(C[C@@H]2NC(=O)[C@H](CCc3ccc(O)cc3)NC(=O)[C@@H](C)NC(=O)[C@H](CC(C)C)NC(=O)[C@H](Cc3c[nH]c4ccccc34)NC(=O)[C@H](Cc3ccc(-c4ccc(C(=O)O)cc4)cc3)NC(=O)CNC(=O)[C@@H](C)N(C)C(=O)[C@H](CC(=O)O)NC(=O)[C@H]([C@@H](C)c3cccc4ccccc34)NC(=O)[C@@H]3C[C@@H](N)CN3C(=O)CNC(=O)[C@H](Cc3ccc(C(=O)O)cc3)NC(=O)[C@H](Cc3c[nH]c4ccccc34)NC2=O)cc1 [Example 125] (cyclo([AEF](Ac)W[Phe(4-COOH)]G[Pro(4R-NH2)][1Nal(3S-Me)]D[dNMeA]G[Bip(4'-COOH)]WL[dA][hTyr]))
0.0602 nM | CC(=O)NCCOc1ccc(C[C@@H]2NC(=O)[C@H](CCc3ccc(O)cc3)NC(=O)[C@@H](C)NC(=O)[C@H](CN)NC(=O)[C@H](Cc3c[nH]c4ccccc34)NC(=O)[C@H](Cc3ccc(-c4ccc(C(=O)O)cc4)cc3)NC(=O)CNC(=O)[C@@H](C)N(C)C(=O)[C@H](CC(=O)O)NC(=O)[C@H]([C@@H](C)c3cccc4ccccc34)NC(=O)[C@@H]3C[C@@H](N)CN3C(=O)CNC(=O)[C@H](Cc3ccc(C(=O)O)cc3)NC(=O)[C@H](Cc3c[nH]c4ccccc34)NC2=O)cc1 [Example 119] (cyclo([AEF](Ac)W[Phe(4-COOH)]G[Pro(4R-NH2)][1Nal(3S-Me)]D[dNMeA]G[Bip(4'-COOH)]W[Dap][dA][hTyr]))
0.432 nM | CC(=O)NCCOc1ccc(C[C@@H]2NC(=O)[C@H](CCc3ccc(O)cc3)NC(=O)C(C)(C)NC(=O)[C@H](CCCN)NC(=O)[C@H](Cc3c[nH]c4ccccc34)NC(=O)[C@H](Cc3ccc(-c4ccc(C(=O)O)cc4)cc3)NC(=O)CNC(=O)[C@@H](C)N(C)C(=O)[C@H](CC(=O)O)NC(=O)[C@H]([C@@H](C)c3cccc4ccccc34)NC(=O)[C@@H]3C[C@@H](N)CN3C(=O)CNC(=O)[C@H](Cc3ccc(C(=O)O)cc3)NC(=O)[C@H](Cc3c[nH]c4ccccc34)NC2=O)cc1 [Example 127] (cyclo([AEF](Ac)W[Phe(4-COOH)]G[Pro(4R-NH2)][1Nal(3S-Me)]D[dNMeA]G[Bip(4'-COOH)]W[Orn][Aib][hTyr]))
0.973 nM | CC(=O)NCCOc1ccc(C[C@@H]2NC(=O)[C@H](C)NC(=O)[C@@H](C)NC(=O)[C@H](CN)NC(=O)[C@H](Cc3c[nH]c4ccccc34)NC(=O)[C@H](Cc3ccc(-c4ccc(C(=O)O)cc4)cc3)NC(=O)CNC(=O)[C@@H](C)N(C)C(=O)[C@H](CC(=O)O)NC(=O)[C@H]([C@@H](C)c3cccc4ccccc34)NC(=O)[C@@H]3C[C@@H](N)CN3C(=O)CNC(=O)[C@H](Cc3ccc(C(=O)O)cc3)NC(=O)[C@H](Cc3c[nH]c4ccccc34)NC2=O)cc1 [Example 118] (cyclo([AEF](Ac)W[Phe(4-COOH)]G[Pro(4R-NH2)][1Nal(3S-Me)]D[dNMeA]G[Bip(4'-COOH)]W[Dap][dA]A))
0.024 nM | CC(=O)NCCOc1ccc(C[C@@H]2NC(=O)[C@H](CCc3ccc(O)cc3)NC(=O)[C@@H](CCN)NC(=O)CNC(=O)[C@H](Cc3c[nH]c4ncccc34)NC(=O)[C@H](Cc3ccc(-c4ccc(C(=O)O)cc4)cc3)NC(=O)CNC(=O)[C@@H](C)N(C)C(=O)[C@H](CC(=O)O)NC(=O)[C@H]([C@@H](C)c3cccc4ccccc34)NC(=O)[C@@H]3C[C@@H](N)CN3C(=O)CNC(=O)[C@H](Cc3ccc(C(=O)O)cc3)NC(=O)[C@H](Cc3c[nH]c4ccccc34)NC2=O)cc1 [Example 215] (cyclo([AEF](Ac)W[Phe(4-COOH)]G[Pro(4R-NH2)][1Nal(3S-Me)]D[dNMeA]G[Bip(4'-COOH)][Trp(7-aza)]G[dDab][hTyr]))
0.37 nM | CC(=O)NCCOc1ccc(C[C@@H]2NC(=O)CNC(=O)C(C)(C)NC(=O)[C@H](CCCN)NC(=O)[C@H](Cc3cccc4ccccc34)NC(=O)[C@H](Cc3ccc(-c4ccc(C(=O)O)cc4)cc3)NC(=O)CNC(=O)[C@@H](C)N(C)C(=O)[C@H](CC(=O)O)NC(=O)[C@H]([C@@H](C)c3c[nH]c4cccc(Cl)c34)NC(=O)[C@@H]3C[C@@H](N)CN3C(=O)CNC(=O)[C@H](Cc3ccc(C(=O)O)cc3)NC(=O)[C@H](Cc3c[nH]c4ccccc34)NC2=O)cc1 [Example 132] (cyclo([AEF](Ac)W[Phe(4-COOH)]G[Pro(4R-NH2)][Trp(4-Cl)(βS-Me)]D[dNMeA]G[Bip(4'-COOH)][1Nal][Orn][Aib]G))
